Measurements taken from the SangsterLogP compilation.

Test: method code SF-AS, from DOI: 10.1016/0048-3575(79)90081-6
Conditions: not given

logP | Compound
1.04 | CCc1cccc(N2C(=O)CCC2=O)c1
-0.02 | COc1ccccc1N1C(=O)CCC1=O
0.57 | Cc1cccc(N2C(=O)CCC2=O)c1
1.1 | CCc1ccc(N2C(=O)CCC2=O)cc1
0.06 | O=C1CCC(=O)N1c1ccccc1
0.64 | CCc1ccccc1N1C(=O)CCC1=O
0.22 | O=C1CCC(=O)N1c1ccccc1F
0.36 | COC(=O)c1cccc(N2C(=O)CCC2=O)c1
0.02 | N#Cc1cccc(N2C(=O)CCC2=O)c1
0.36 | O=C1CCC(=O)N1c1ccccc1[N+](=O)[O-]
0.8 | O=C1CCC(=O)N1c1ccccc1I
0.29 | Cc1ccccc1N1C(=O)CCC1=O

More lines, now with the values behind:

Compound | logP
O=C1CCC(=O)N1c1ccc(Cl)cc1 | 0.96
O=C1CCC(=O)N1c1cccc(F)c1 | 0.38
O=C1CCC(=O)N1c1cccc(Br)c1 | 1.09
O=C1CCC(=O)N1c1ccc(Br)cc1 | 1.18
Cc1ccc(N2C(=O)CCC2=O)cc1 | 0.58
O=C1CCC(=O)N1c1ccccc1C(F)(F)F | 0.76
O=C1CCC(=O)N1c1ccccc1Cl | 0.56
O=C1CCC(=O)N1c1ccccc1Br | 0.65
O=C1CCC(=O)N1c1ccc([N+](=O)[O-])cc1 | 0.46
O=C1CCC(=O)N1c1ccc(F)cc1 | 0.29
O=C1CCC(=O)N1c1cccc([N+](=O)[O-])c1 | 0.38
O=C1CCC(=O)N1c1cccc(Cl)c1 | 0.98

Same assay, conditions: pH 7.4

Compound | logD
O=C1CCC(=O)N1c1cccc(I)c1 | 1.39
